Results taken from paper PMC11187260, “Unraveling the interconversion pharmacokinetics and oral bioavailability of the major ginger constituents: [6]-gingerol, [6]-shogaol, and zingerone after single-dose administration in rats” (Frontiers in Pharmacology, 2024).
Like-named read-outs stand apart in the source and are kept apart here.

Tests used:
[1] = Percent recovery in urine and feces after intravenous or oral administration; assay type: in vivo, Female Sprague Dawley rats; conditions: for dose excreted: female, Sprague Dawley, rat, % of administered dose
Description: (§1) This study is composed of two sections; the first section involves an investigation of the interconversion pharmacokinetics of the pure compounds, and the second focuses on tissue distribution. All rats were transferred to metabolic cages and fasted overnight for at least 10 h. The animals were then randomly divided into four groups (6 rats/group) to receive a single intravenous (i.v.) administration of either 6G, 6S, zingerone, or vehicle via the lateral tail vein at a dosage of 3 mg/kg. After a 7-week washout period, the rats received 30 mg/kg of the same test compounds through a single oral (p.o.) administration. Following each administration, blood samples (300 µL) were collected in heparinized tubes from the lateral tail vein (while rats were under anesthesia with isoflurane) at specified time points: 0.083, 0.25, 0.5, 1, 1.5, 2, 3, 4, 6, 8, and 24 h after administration. An additional 1 mL of blood sample was collected from each rat at pre-dose (0 h) and post-dose (24 h) for clinical laboratory testing and safety evaluation. All heparinized blood samples were initially centrifuged at 5,000 × g, 4 °C, for 10 min. Subsequently, the plasma was carefully transferred to a cryotube as an aliquot sample and then stored at −40 °C until analysis. Urine and feces were collected during the intervals of 0–24 h and 24–48 h post-dosing, and their weights and volumes were documented. All collected urine and feces samples were stored at −40 °C until analysis.
(§2) Urine samples were centrifuged, and 50 µL of urine was extracted with 200 µL of 100% methanol. The mixture was vortexed for 10 min and subsequently centrifuged at 14,000 × g at 4 °C for 10 min. Feces and organs were weighed and homogenized with methanol (50:50% w/v). The supernatants of the extracted urine, feces, and organs were also filtered through a […] PVDF membrane (Chrome Tech, MN, USA) before analysis.
(§3) Investigation of glucuronide conjugations followed a previously published method with some modification ([Wang et al., 2017]; [Songvut et al., 2023]). A 50 μL aliquot of plasma, urine, or feces sample was incubated at 37 °C for a minimum of 30 min with 50 μL of β-glucuronidase (3,000 U/mL) in a sodium phosphate buffer (pH 6.8). For sample extraction, 150 μL of methanol containing 50 μg/L of IS was pipetted into the pre-incubated samples. Subsequently, the mixtures were vortexed for 10 min and then centrifuged at 14,000 × g at 4 °C for 10 min. The supernatants were filtered through a […] PVDF membrane (Chrome Tech, MN, United States) and then analyzed using the validated LC-MS/MS method.
(§4) Plasma concentration-time profiles were plotted using GraphPad Prism 9.3.0 (GraphPad Software, USA). The absolute oral bioavailability was calculated as follows: F = (AUC p.o./dose p.o.)/(AUC i.v./dose i.v.). The percentage recovery of each administered compound was calculated as the total amount of the drug found in urine or feces divided by the administered dose. The tissue-to-plasma concentration ratios (K p) were calculated by dividing the concentration in the tissue by the corresponding plasma concentration at the respective sampling time point.

[2] = Pharmacokinetics and oral bioavailability after single oral administration (30 mg/kg), plasma LC-MS/MS; assay type: in vivo, Female Sprague Dawley rats; conditions: for bioavailability / AUC(0-inf) / AUC(0-t) / Tmax: plasma, 30 mg/kg; for AUC(0-t): read-out: AUC(0-t); for Tmax: median [IQR]
Description: as §1
Plasma samples were processed through protein precipitation. In brief, 50 µL of plasma was mixed with 200 µL of methanol containing 50 ng/mL of IS (dihydrocapsaicin). The mixtures were vortexed and centrifuged at 14,000 × g at 4 °C for 10 min. The supernatant was filtered through a […] PVDF membrane (Chrome Tech, MN, USA) before analysis.
as §3
Quantitative analysis was conducted using liquid chromatography-tandem mass spectrometry (LC-MS/MS) with a Nexera X2 LCMS-8060NX instrument (Shimadzu, Japan). The instrument included a CBM-40lite system controller, CTO-40C column oven, SIL-40C XR autosampler, LC-40D XR solvent pump unit, FCV-DGU-403 degasser, and 20AH2 switching valve. The LC-MS/MS system was operated with a binary pump and equipped with a triple quadrupole mass spectrometer.
Pharmacokinetic parameters were assessed using PK Solutions software (version 2.0) with non-compartmental analysis. The AUC was calculated using the Linear-Log Trapezoidal Method. The maximum plasma concentration (Cmax) and time to reach maximum plasma concentration (Tmax) were taken directly from the graph.
as §4

[3] = Safety evaluation: physical appearance and blood chemistry after single i.v. or p.o. dose; assay type: in vivo, Female Sprague Dawley rats; conditions: for ALP / ALT / AST / BUN / Creatinine: post-dose (24 h), mean ± SD n=6; for Physical appearance: post-dose
Description: as §1
Plasma samples were collected at baseline (T0) and T24 h for the determination of blood chemistry, including levels of blood urea nitrogen (BUN), creatinine, aspartate transaminase (AST), alanine transaminase (ALT), and alkaline phosphatase (ALP). The analyses were conducted by the Exclusive Veterinary Professional Laboratory Center (Bangkok, Thailand). The creatinine level was determined using an enzymatic oxidase assay, while AST and ALT levels were determined using the procedure of the International Federation of Clinical Chemistry (IFCC) without pyridoxal phosphate activation.

[4] = Tissue distribution after single oral administration (30 mg/kg); assay type: in vivo; conditions: 1–2 h after oral 30 mg/kg
Description: Tissue distribution analysis was carried out after a 7-week washout period following the completion of the pharmacokinetic study. The animals received a single oral administration of either 6G, 6S, zingerone, or vehicle at a dosage of 30 mg/kg. Euthanasia was performed using an overdose of isoflurane (>10%) in an induction chamber, either one or 2 h after oral gavage (3 rats/timepoint), and death was confirmed by exsanguination. Subsequently, the stomach, small intestine, liver, large intestine, kidneys, heart, lung, hippocampus, cortex, spleen, ovaries, and spinal cord were collected. The dissected organs were thoroughly cleaned with a cold normal saline solution and the connective tissue was removed. The organs were then precisely weighed before being stored at −40 °C. All processes during tissue collection were performed on ice.
as §2, §4

[5] = female, Sprague-Dawley, rat, po, plasma analyte after [6]-gingerol p.o. 30 mg/kg, mean ± SD n=6
[6] = female, Sprague-Dawley, rat, po, plasma analyte after zingerone p.o. 30 mg/kg, mean ± SD n=6

COc1cc(CCC(C)=O)ccc1O [zingerone, 4-(4-hydroxy-3-methoxyphenyl)-2-butanone]
parent compound recovered in urine ([1]; during 24–48 h): less than 1%
dose excreted ([1]; feces, iv, 3 mg/kg, intravenous administration 3 mg/kg of parent compound, read-out: % Recovery excretion, feces T 0–24 h): 0.049 ± 0.027%
dose excreted ([1]; feces, iv, 3 mg/kg, intravenous administration 3 mg/kg of parent compound, read-out: % Recovery excretion, feces T 24–48 h): 0.002 ± 0.001%
dose excreted ([1]; feces, po, 30 mg/kg, oral administration 30 mg/kg of parent compound, read-out: % Recovery excretion, feces T 0–24 h): 0.004 ± 0.003%
dose excreted ([1]; feces, po, 30 mg/kg, oral administration 30 mg/kg of parent compound, read-out: % Recovery excretion, feces T 24–48 h): 0.057 ± 0.017%
dose excreted ([1]; urine, iv, 3 mg/kg, intravenous administration 3 mg/kg of parent compound, read-out: % Recovery excretion, urine T 0–24 h): 0.184 ± 0.286%
dose excreted ([1]; urine, iv, 3 mg/kg, intravenous administration 3 mg/kg of parent compound, read-out: % Recovery excretion, urine T 24–48 h): < 0.001%
dose excreted ([1]; urine, po, 30 mg/kg, oral administration 30 mg/kg of parent compound, read-out: % Recovery excretion, urine T 0–24 h): 0.049 ± 0.032%
dose excreted ([1]; urine, po, 30 mg/kg, oral administration 30 mg/kg of parent compound, read-out: % Recovery excretion, urine T 24–48 h): < 0.001%
unchanged form in fecal excretion ([1]; within 48 h after intravenous or oral administration): < 0.1%
plasma detection of zingerone after 6S administration ([2]; after 6S administration (route not given)): not detected
bioavailability ([2]; female, Sprague-Dawley, rat, po, p.o. 30 mg/kg vs i.v. 3 mg/kg of the pure compound, mean ± SD n=6, read-out: %Oral bioavailability): 0.75 ± 0.52%
bioavailability ([2]; female, Sprague-Dawley, rat, po, p.o. 30 mg/kg vs i.v. 3 mg/kg of the pure compound, range among rats, read-out: %Oral bioavailability (range)): 0.32 to 1.6%
bioavailability ([2]; female, Sprague-Dawley, rat, po, p.o. 30 mg/kg vs i.v. 3 mg/kg, pure compounds, read-out: absolute oral bioavailability (upper bound)): < 2%
AUC(0-inf) [2, 5]: 28 ± 7.4 ng·h/mL
AUC(0-t) [2, 5]: 28 ± 7.4 ng·h/mL
Tmax ([2]; female, Sprague-Dawley, rat, po, plasma analyte after [6]-gingerol p.o. 30 mg/kg): 15 min
AUC(0-inf) [2, 6]: 950 ± 373 ng·h/mL
AUC(0-t) [2, 6]: 944 ± 348 ng·h/mL
Tmax ([2]; female, Sprague-Dawley, rat, po, plasma analyte after zingerone p.o. 30 mg/kg): 4.8 min
Cmax [2, 6]: 1870 ± 604 ng/mL
presence of parent compound in plasma ([2]; following oral administration): up to 4 h
time to detectable plasma levels ([2]; oral administration of pure compound): ≤ 5 min
time to reach peak plasma concentration (Cmax) ([2]; parent compound after oral administration 30 mg/kg): 5 to 45 min
ALP ([3]; i.v. 3 mg/kg): 48.50 ± 14.00 U/L
ALT ([3]; i.v. 3 mg/kg): 28.50 ± 5.82 U/L
AST ([3]; i.v. 3 mg/kg): 64.17 ± 11.05 U/L
BUN ([3]; i.v. 3 mg/kg): 14.17 ± 1.33 mg/dL
Creatinine ([3]; i.v. 3 mg/kg): 0.70 ± 0.03 mg/dL
ALP ([3]; p.o. 30 mg/kg): 35.83 ± 8.38 U/L
ALT ([3]; p.o. 30 mg/kg): 19.33 ± 2.50 U/L
AST ([3]; p.o. 30 mg/kg): 53.83 ± 6.88 U/L
BUN ([3]; p.o. 30 mg/kg): 9.83 ± 1.47 mg/dL
Creatinine ([3]; p.o. 30 mg/kg): 0.75 ± 0.02 mg/dL
Physical appearance ([3]; i.v. 3 mg/kg): Normal
Physical appearance ([3]; p.o. 30 mg/kg): Normal
Tolerability ([3]; single i.v. 3 mg/kg or p.o. 30 mg/kg): exhibited tolerance
distribution to brain regions (hippocampus and cortex) [4]: higher concentrations
tissue-to-plasma ratios (rank among compounds) [4]: highest
